# Data as given in patent US20100297692A1, “REACTION MEDIUM FOR DETECTING AND/OR IDENTTIFYING STAPHYLOCCOUS AUREUS” (BIOMERIEUX, priority 2007, published 2010).
# Legend:
# Assay in all cases: β-D-ribosidase substrates in Columbia agar, colored or fluorescent colonies
# Enterococci = assay type: cell-based, Enterococcus spp
# Experimental: (§1) The media hereinafter were prepared in 200 ml of a Columbia agar base (Oxoid), in combination with the chromogenic β-D-ribosidase substrates. The various substrates and also the concentrations and the additives used in the media are described in Table 1 below:
# (§2) The β-D-ribosidase substrates are solubilized in DMSO and added to the media so as to obtain the concentrations indicated in Table 1.
# (§3) 191 bacterial strains were inoculated onto each of the media using a suspension at 0.5 MacFarland diluted to 1/1000. The dishes were incubated at 37° C. and then read.
# (§4) The media were distributed into Petri dishes, then inoculated with approximately 100 000 CFU, then incubated at 37° C. for 48 h. The colonies formed were examined visually after incubation times of 18, 24 and 48 hours.
# (§5) The stock collection of 191 strains comprised: […], 48 Staphylococcus spp, 61 Enterococcus spp and 3 alpha-hemolytic Streptococcus.
# [1] = system: Coagulase-negative Staphylococci; assay type: cell-based, Staphylococcus spp; details: Coagulase-negative Staphylococci
# Experimental: as §1, §2, §3, §4, §5
# [2] = system: Alpha-hemolytic streptococci; assay type: cell-based, alpha-hemolytic Streptococcus
# Experimental: as §1, §2, §3, §4, §5
# S. aureus (MRSA) = assay type: cell-based, Staphylococcus aureus
# Experimental: as §1, §2, §3, §4, §5
# S. aureus (MSSA) = assay type: cell-based, Staphylococcus aureus
# Experimental: as §1, §2, §3, §4, §5
# Micrococcus luteus = assay type: cell-based
# Experimental: [The procedure below names another organism; the source lists this organism under the same test.] as §1, §2, §3, §4, §5
# [3] = 400 mg/L + ammoniacal iron citrate 100 mg/l, 18 h
# [4] = 400 mg/L + ammoniacal iron citrate 100 mg/l, 24 h
# [5] = 400 mg/L + ammoniacal iron citrate 100 mg/l, 48 h
molecule,measurement,setting,value
Dihydroxyflavone-beta-D-riboside [DHF-β-riboside],% of strains producing colored or fluorescent colonies,Enterococci; [3],30%
same,% of strains producing colored or fluorescent colonies,Enterococci; [4],30%
same,% of strains producing colored or fluorescent colonies,Enterococci; [5],48%
same,% of strains producing colored or fluorescent colonies,[1]; [3],68%
same,% of strains producing colored or fluorescent colonies,[1]; [4],68%
same,% of strains producing colored or fluorescent colonies,[1]; [5],91%
same,% of strains producing colored or fluorescent colonies,[2]; [3],0%
same,% of strains producing colored or fluorescent colonies,[2]; [4],0%
same,% of strains producing colored or fluorescent colonies,[2]; [5],0%
same,% of strains producing colored or fluorescent colonies,S. aureus (MRSA); [3],100%
same,% of strains producing colored or fluorescent colonies,S. aureus (MRSA); [4],100%
same,% of strains producing colored or fluorescent colonies,S. aureus (MRSA); [5],100%
same,% of strains producing colored or fluorescent colonies,S. aureus (MSSA); [3],100%
same,% of strains producing colored or fluorescent colonies,S. aureus (MSSA); [4],100%
same,% of strains producing colored or fluorescent colonies,S. aureus (MSSA); [5],100%
same,% of strains producing colored or fluorescent colonies,Micrococcus luteus; [3],0%
same,% of strains producing colored or fluorescent colonies,Micrococcus luteus; [4],0%
same,% of strains producing colored or fluorescent colonies,Micrococcus luteus; [5],0%
"OC[C@H]1O[C@@H](Oc2c[nH]c3cc(Cl)ccc23)[C@H](O)[C@@H]1O [Pink-β-riboside, 6-Chloro-3-indoxyl-beta-D-riboside]",% of strains producing colored or fluorescent colonies,"Enterococci; 100 mg/L, 18 h",0%
same,% of strains producing colored or fluorescent colonies,"Enterococci; 100 mg/L, 24 h",0%
same,% of strains producing colored or fluorescent colonies,"Enterococci; 100 mg/L, 48 h",2%
same,% of strains producing colored or fluorescent colonies,"Enterococci; 200 mg/L, 18 h",0%
same,% of strains producing colored or fluorescent colonies,"Enterococci; 200 mg/L, 24 h",0%
same,% of strains producing colored or fluorescent colonies,"Enterococci; 200 mg/L, 48 h",0%
same,% of strains producing colored or fluorescent colonies,"[1]; 100 mg/L, 18 h",3%
same,% of strains producing colored or fluorescent colonies,"[1]; 100 mg/L, 24 h",3%
same,% of strains producing colored or fluorescent colonies,"[1]; 100 mg/L, 48 h",3%
same,% of strains producing colored or fluorescent colonies,"[1]; 200 mg/L, 18 h",3%
same,% of strains producing colored or fluorescent colonies,"[1]; 200 mg/L, 24 h",3%
same,% of strains producing colored or fluorescent colonies,"[1]; 200 mg/L, 48 h",6%
same,% of strains producing colored or fluorescent colonies,"[2]; 100 mg/L, 18 h",0%
same,% of strains producing colored or fluorescent colonies,"[2]; 100 mg/L, 24 h",0%
same,% of strains producing colored or fluorescent colonies,"[2]; 100 mg/L, 48 h",0%
same,% of strains producing colored or fluorescent colonies,"[2]; 200 mg/L, 18 h",0%
same,% of strains producing colored or fluorescent colonies,"[2]; 200 mg/L, 24 h",0%
same,% of strains producing colored or fluorescent colonies,"[2]; 200 mg/L, 48 h",0%
same,% of strains producing colored or fluorescent colonies,"S. aureus (MRSA); 100 mg/L, 18 h",91%
same,% of strains producing colored or fluorescent colonies,"S. aureus (MRSA); 100 mg/L, 24 h",96%
same,% of strains producing colored or fluorescent colonies,"S. aureus (MRSA); 100 mg/L, 48 h",100%
same,% of strains producing colored or fluorescent colonies,"S. aureus (MRSA); 200 mg/L, 18 h",84%
same,% of strains producing colored or fluorescent colonies,"S. aureus (MRSA); 200 mg/L, 24 h",94%
same,% of strains producing colored or fluorescent colonies,"S. aureus (MRSA); 200 mg/L, 48 h",100%
same,% of strains producing colored or fluorescent colonies,"S. aureus (MSSA); 100 mg/L, 18 h",64%
same,% of strains producing colored or fluorescent colonies,"S. aureus (MSSA); 100 mg/L, 24 h",64%
same,% of strains producing colored or fluorescent colonies,"S. aureus (MSSA); 100 mg/L, 48 h",100%
same,% of strains producing colored or fluorescent colonies,"S. aureus (MSSA); 200 mg/L, 18 h",57%
same,% of strains producing colored or fluorescent colonies,"S. aureus (MSSA); 200 mg/L, 24 h",64%
same,% of strains producing colored or fluorescent colonies,"S. aureus (MSSA); 200 mg/L, 48 h",100%
same,% of strains producing colored or fluorescent colonies,"Micrococcus luteus; 100 mg/L, 18 h",0%
same,% of strains producing colored or fluorescent colonies,"Micrococcus luteus; 100 mg/L, 24 h",0%
same,% of strains producing colored or fluorescent colonies,"Micrococcus luteus; 100 mg/L, 48 h",0%
same,% of strains producing colored or fluorescent colonies,"Micrococcus luteus; 200 mg/L, 18 h",0%
same,% of strains producing colored or fluorescent colonies,"Micrococcus luteus; 200 mg/L, 24 h",0%
same,% of strains producing colored or fluorescent colonies,"Micrococcus luteus; 200 mg/L, 48 h",0%
